Assay results reported in ChEMBL document CHEMBL1909046, “DrugMatrix in vitro pharmacology data”.

Assays:
[1] = molecular target: Sodium-dependent dopamine transporter (Homo sapiens, UniProt Q01959); assay: DRUGMATRIX: Dopamine Transporter radioligand binding (ligand: [125I] RTI-55); type: cell membranes, CHO-K1, Membrane; details: Not Active = under 50% inhibition at 10 µM
Caspase-1 = molecular target: T1, Caspase-1 (Homo sapiens, UniProt P29466); set-up: species or system Escherichia coli;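 further: Caspase-1 enzyme inhibition assay with a peptide substrate; in other assays of this panel Not Active means under 50% inhibition at 10 µM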
T1 sequence (P29466 whole entry): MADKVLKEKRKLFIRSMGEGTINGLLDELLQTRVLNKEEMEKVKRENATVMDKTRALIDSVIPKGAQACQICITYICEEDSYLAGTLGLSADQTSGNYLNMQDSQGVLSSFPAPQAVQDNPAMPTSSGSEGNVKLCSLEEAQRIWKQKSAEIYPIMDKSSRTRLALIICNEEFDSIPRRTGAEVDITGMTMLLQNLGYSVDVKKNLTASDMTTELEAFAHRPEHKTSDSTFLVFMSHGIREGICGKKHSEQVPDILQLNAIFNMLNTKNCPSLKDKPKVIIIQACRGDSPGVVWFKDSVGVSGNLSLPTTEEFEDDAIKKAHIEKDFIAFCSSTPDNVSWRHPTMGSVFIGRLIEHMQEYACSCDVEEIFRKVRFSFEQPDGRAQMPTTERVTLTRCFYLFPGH

[2] = DRUGMATRIX: Glutamate, AMPA radioligand binding (ligand: [3H] AMPA); type: cell membranes, Rattus norvegicus, Wistar, Cerebral cortex, Membrane; details: Not Active = under 50% inhibition at 10 µM
[3] = molecular target: 5-hydroxytryptamine receptor 2B (Homo sapiens, UniProt P41595); type: cell membranes, CHO-K1, Membrane; details: for Ki: read-out: Ki; on all read-outs here: in other assays of this panel Not Active means under 50% inhibition at 10 µM
[4] = DRUGMATRIX: Nicotinic Acetylcholine radioligand binding (ligand: [125I] Epibatidine); type: cell membranes, Membrane; details: imr-32; Not Active = under 50% inhibition at 10 µM
Glucocorticoid receptor = molecular target: T2, Glucocorticoid receptor (Homo sapiens, UniProt P04150); details: hela s3; further: in other assays of this panel Not Active means under 50% inhibition at 10 µM
T2 sequence (P04150 whole entry): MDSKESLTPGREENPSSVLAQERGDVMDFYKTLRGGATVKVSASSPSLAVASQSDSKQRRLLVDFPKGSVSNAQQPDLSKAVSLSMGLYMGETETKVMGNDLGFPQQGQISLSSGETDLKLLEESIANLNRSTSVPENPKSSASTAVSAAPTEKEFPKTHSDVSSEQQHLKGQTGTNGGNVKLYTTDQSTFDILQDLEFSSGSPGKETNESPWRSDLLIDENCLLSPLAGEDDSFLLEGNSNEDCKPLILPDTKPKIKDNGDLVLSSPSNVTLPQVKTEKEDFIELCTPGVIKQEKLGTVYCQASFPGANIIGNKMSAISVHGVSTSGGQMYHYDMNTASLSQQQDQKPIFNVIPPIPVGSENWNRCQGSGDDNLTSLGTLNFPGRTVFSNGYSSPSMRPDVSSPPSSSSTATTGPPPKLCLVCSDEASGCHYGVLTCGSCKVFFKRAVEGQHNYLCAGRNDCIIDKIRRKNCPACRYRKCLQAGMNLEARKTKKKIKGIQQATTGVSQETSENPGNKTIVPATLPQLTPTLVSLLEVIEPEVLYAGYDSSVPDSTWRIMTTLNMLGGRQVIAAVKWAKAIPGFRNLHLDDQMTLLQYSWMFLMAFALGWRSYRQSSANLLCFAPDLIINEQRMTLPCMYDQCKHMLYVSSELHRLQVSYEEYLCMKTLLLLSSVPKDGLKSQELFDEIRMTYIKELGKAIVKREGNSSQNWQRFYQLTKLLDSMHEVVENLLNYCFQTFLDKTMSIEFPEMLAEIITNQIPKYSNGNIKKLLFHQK

Estrogen receptor beta = Estrogen receptor beta (Homo sapiens, UniProt Q92731); details: sf9; further: in other assays of this panel Not Active means under 50% inhibition at 10 µM
Sequence of Estrogen receptor beta (Q92731 whole entry): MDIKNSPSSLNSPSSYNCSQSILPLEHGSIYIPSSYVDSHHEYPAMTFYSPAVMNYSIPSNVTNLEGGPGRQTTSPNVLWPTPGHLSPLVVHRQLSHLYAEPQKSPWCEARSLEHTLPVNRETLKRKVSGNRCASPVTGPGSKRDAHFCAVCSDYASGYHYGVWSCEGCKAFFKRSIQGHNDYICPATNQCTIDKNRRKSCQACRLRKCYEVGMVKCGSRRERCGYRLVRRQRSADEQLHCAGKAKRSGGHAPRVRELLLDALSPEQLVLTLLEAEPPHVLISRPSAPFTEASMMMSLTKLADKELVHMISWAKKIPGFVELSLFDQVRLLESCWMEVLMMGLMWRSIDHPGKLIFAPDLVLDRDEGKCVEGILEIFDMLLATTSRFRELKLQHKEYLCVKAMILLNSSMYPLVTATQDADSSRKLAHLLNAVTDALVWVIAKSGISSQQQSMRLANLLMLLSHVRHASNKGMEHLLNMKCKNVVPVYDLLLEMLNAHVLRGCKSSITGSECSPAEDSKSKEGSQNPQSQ

Sequence of Sodium-dependent dopamine transporter (Q01959 whole entry): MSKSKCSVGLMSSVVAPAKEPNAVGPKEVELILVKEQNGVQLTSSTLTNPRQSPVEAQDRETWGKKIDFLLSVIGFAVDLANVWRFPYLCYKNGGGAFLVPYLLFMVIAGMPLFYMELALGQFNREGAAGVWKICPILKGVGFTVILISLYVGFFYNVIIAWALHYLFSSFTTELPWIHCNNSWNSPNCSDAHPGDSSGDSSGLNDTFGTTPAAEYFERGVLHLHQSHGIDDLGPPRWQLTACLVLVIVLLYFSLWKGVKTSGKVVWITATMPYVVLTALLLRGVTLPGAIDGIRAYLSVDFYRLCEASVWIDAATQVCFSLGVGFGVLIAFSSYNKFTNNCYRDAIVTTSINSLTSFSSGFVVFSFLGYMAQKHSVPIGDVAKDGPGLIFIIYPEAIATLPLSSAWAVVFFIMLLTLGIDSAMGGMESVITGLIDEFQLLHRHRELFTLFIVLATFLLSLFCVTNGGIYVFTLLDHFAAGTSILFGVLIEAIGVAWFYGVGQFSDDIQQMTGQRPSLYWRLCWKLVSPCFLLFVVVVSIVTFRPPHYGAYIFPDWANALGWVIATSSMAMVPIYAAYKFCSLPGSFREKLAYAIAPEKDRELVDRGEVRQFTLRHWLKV
Sequence of 5-hydroxytryptamine receptor 2B (P41595 whole entry): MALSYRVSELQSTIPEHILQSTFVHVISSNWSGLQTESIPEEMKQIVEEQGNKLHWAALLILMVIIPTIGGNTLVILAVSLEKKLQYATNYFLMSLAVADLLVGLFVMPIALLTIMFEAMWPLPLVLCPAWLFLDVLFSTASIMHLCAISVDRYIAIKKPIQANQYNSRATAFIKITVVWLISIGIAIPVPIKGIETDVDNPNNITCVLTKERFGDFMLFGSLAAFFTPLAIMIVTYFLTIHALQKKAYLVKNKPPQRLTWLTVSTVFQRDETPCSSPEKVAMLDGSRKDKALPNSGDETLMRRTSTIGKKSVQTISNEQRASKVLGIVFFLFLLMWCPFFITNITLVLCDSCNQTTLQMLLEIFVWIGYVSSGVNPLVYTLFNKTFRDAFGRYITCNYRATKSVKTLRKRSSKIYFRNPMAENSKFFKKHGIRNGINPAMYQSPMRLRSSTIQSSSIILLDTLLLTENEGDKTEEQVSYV

| SMILES | IC50 ([1]; cho-k1) | IC50 (Caspase-1) | IC50 [2] | Ki [2] | IC50 ([3]; cho-k1) | IC50 [4] | Ki [4] | IC50 (Glucocorticoid receptor) | IC50 (Estrogen receptor beta) | IC50 ([3]; read-out: IC50) [µM] | Ki [3] [µM] | IC50 ([1]; read-out: IC50) [µM] | Ki ([1]; read-out: Ki) [µM] |
| --- | --- | --- | --- | --- | --- | --- | --- | --- | --- | --- | --- | --- | --- |
| O=C/C=C/c1ccccc1 | Not Active | Not Active | Not Active | Not Active | Not Active | Not Active | Not Active | Not Active | – | – | – | – | – |
| COc1ccc(C(=O)N2CCCC2=O)cc1 | Not Active | Not Active | Not Active | Not Active | Not Active | Not Active | Not Active | Not Active | – | – | – | – | – |
| CC[C@H](C)[C@H]1O[C@]2(C=C[C@@H]1C)C[C@@H]1C[C@@H](C/C=C(\C)[C@@H](O[C@H]3C[C@H](OC)[C@@H](O[C@H]4C[C@H](OC)[C@@H](O)[C@H](C)O4)[C@H](C)O3)[C@@H](C)/C=C/C=C3\CO[C@@H]4[C@H](O)C(C)=C[C@@H](C(=O)O1)[C@]34O)O2.CO[C@H]1C[C@H](O[C@H]2[C@H](C)O[C@@H](O[C@@H]3/C(C)=C/C[C@@H]4C[C@@H](C[C@]5(C=C[C@H](C)[C@@H](C(C)C)O5)O4)OC(=O)[C@@H]4C=C(C)[C@@H](O)[C@H]5OC/C(=C\C=C\[C@@H]3C)[C@]54O)C[C@@H]2OC)O[C@@H](C)[C@@H]1O [ABAMECTIN] | Not Active | Not Active | Not Active | Not Active | Not Active | Not Active | Not Active | Not Active | – | – | – | – | – |
| Cn1c(=O)c2[nH]cnc2n(C)c1=O.Cn1c(=O)c2[nH]cnc2n(C)c1=O.NCCN [AMINOPHYLLINE] | Not Active | Not Active | Not Active | Not Active | Not Active | Not Active | Not Active | – | – | – | – | – | – |
| CCC1(CCC(C)C)C(=O)NC(=O)NC1=O [AMOBARBITAL] | Not Active | Not Active | Not Active | Not Active | Not Active | Not Active | Not Active | – | Not Active | – | – | – | – |
| CC1(C)S[C@@H]2[C@H](NC(=O)[C@H](N)c3ccccc3)C(=O)N2[C@H]1C(=O)O [AMPICILLIN] | Not Active | Not Active | Not Active | Not Active | Not Active | Not Active | Not Active | Not Active | – | – | – | – | – |
| COc1ccc2cc3[n+](cc2c1OC)CCc1cc2c(cc1-3)OCO2.[Cl-] [BERBERINE CHLORIDE] | Not Active | Not Active | Not Active | Not Active | – | Not Active | Not Active | Not Active | – | 3.44 | 2.19 | – | – |
| O=C(O)CCNC(=O)c1ccccc1 [BETAMIPRON] | Not Active | Not Active | Not Active | Not Active | Not Active | Not Active | Not Active | Not Active | – | – | – | – | – |
| CC(=O)Oc1ccc(C(c2ccc(OC(C)=O)cc2)c2ccccn2)cc1 [BISACODYL] | – | Not Active | Not Active | Not Active | Not Active | Not Active | Not Active | – | Not Active | – | – | – | – |
| CN/C(=N\CCSCc1nc[nH]c1C)NC#N [CIMETIDINE] | Not Active | Not Active | Not Active | Not Active | Not Active | Not Active | Not Active | – | Not Active | – | – | – | – |
| COc1cc(N)c(Cl)cc1C(=O)NC1CCN(CCCOc2ccc(F)cc2)CC1OC (centres undefined) [CISAPRIDE] | Not Active | Not Active | Not Active | Not Active | – | Not Active | Not Active | Not Active | – | – | – | – | – |
| Nc1ccn([C@@H]2O[C@H](CO)[C@@H](O)[C@@H]2O)c(=O)n1 [CYTARABINE] | Not Active | Not Active | Not Active | Not Active | Not Active | Not Active | Not Active | Not Active | – | – | – | – | – |
| C[C@@H]1C[C@H]2[C@@H]3CCC4=CC(=O)C=C[C@]4(C)[C@@]3(F)[C@@H](O)C[C@]2(C)[C@@]1(O)C(=O)CO [DEXAMETHASONE] | Not Active | Not Active | Not Active | Not Active | Not Active | Not Active | Not Active | – | – | – | – | – | – |
| CN(C)CC[C@@H](c1ccc(Cl)cc1)c1ccccn1 [DEXCHLORPHENIRAMINE] | – | Not Active | Not Active | Not Active | Not Active | Not Active | Not Active | Not Active | – | – | – | 0.931 | 0.739 |
| OC(CCCN1CCCCC1)(c1ccccc1)c1ccccc1 [DIPHENIDOL] | Not Active | Not Active | Not Active | Not Active | Not Active | Not Active | Not Active | – | – | – | – | – | – |
| CC[C@H]1CN2CCc3cc(OC)c(OC)cc3[C@@H]2C[C@@H]1C[C@H]1NCCc2cc(OC)c(OC)cc21 [EMETINE] | Not Active | Not Active | Not Active | Not Active | Not Active | Not Active | Not Active | Not Active | – | – | – | – | – |
| CCC1(C)CC(=O)NC1=O (centres undefined) [ETHOSUXIMIDE] | Not Active | Not Active | Not Active | Not Active | Not Active | Not Active | Not Active | Not Active | – | – | – | – | – |
| C=CCc1ccc(O)c(OC)c1 [EUGENOL] | Not Active | Not Active | Not Active | Not Active | Not Active | Not Active | Not Active | – | – | – | – | – | – |
| CC(C)(C)NC(=O)[C@H]1CC[C@H]2[C@@H]3CC[C@H]4NC(=O)C=C[C@]4(C)[C@H]3CC[C@]12C [FINASTERIDE] | Not Active | Not Active | Not Active | Not Active | Not Active | Not Active | Not Active | Not Active | – | – | – | – | – |
| CC(C)=CCC/C(C)=C/CO [GERANIOL] | Not Active | Not Active | Not Active | Not Active | Not Active | Not Active | Not Active | Not Active | – | – | – | – | – |
| N=C(N)NC(=O)Cc1c(Cl)cccc1Cl [GUANFACINE] | Not Active | Not Active | Not Active | Not Active | – | Not Active | Not Active | Not Active | – | 2.1 | 1.34 | – | – |
| NNc1nncc2ccccc12 [HYDRALAZINE] | Not Active | Not Active | Not Active | Not Active | Not Active | Not Active | Not Active | Not Active | – | – | – | – | – |
| C#CC1(O)CC[C@H]2[C@@H]3CCC4=CC(=O)CC[C@@H]4[C@H]3CC[C@@]21CC (some centres undefined) [NORGESTREL] | Not Active | Not Active | Not Active | Not Active | Not Active | Not Active | Not Active | – | – | – | – | – | – |
| COC(=O)Nc1nc2ccc([S+]([O-])c3ccccc3)cc2[nH]1 (centres undefined) [OXFENDAZOLE] | Not Active | Not Active | Not Active | Not Active | Not Active | Not Active | Not Active | Not Active | – | – | – | – | – |
| CCCNCC(O)COc1ccccc1C(=O)CCc1ccccc1 (centres undefined) [PROPAFENONE] | – | Not Active | Not Active | Not Active | – | Not Active | Not Active | – | Not Active | – | – | – | – |
